Target: SOS1:KRAS (G12C) interaction (Homo sapiens (Human), UniProt Q07889)
Experiment: SOS1 KRas(G12C) FRET Assay
Format: binding
Settings: 0.5 nM His10-SOS1 (res. 564-1049), 2.5 nM GST-KRAS G12C (res. 1-169), 2 hrs at RT
Method in brief: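 GST-KRAS G12C (res. 1-169) at 2.5 nM and His10-SOS1 (res. 564-1049) at 0.5 nM, final, in PBS with 0.1% BSA, 5 mM MgCl2, 100 mM KF, 5 mM DTT and 0.5% DMSO. After 2 h at RT, FRET read at 665/615 nm and normalized to DMSO and no-SOS1 controls. IC50 by non-linear regression.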

Chain of SOS1:KRAS (G12C) interaction (Q07889 564-1049, stated change not applied): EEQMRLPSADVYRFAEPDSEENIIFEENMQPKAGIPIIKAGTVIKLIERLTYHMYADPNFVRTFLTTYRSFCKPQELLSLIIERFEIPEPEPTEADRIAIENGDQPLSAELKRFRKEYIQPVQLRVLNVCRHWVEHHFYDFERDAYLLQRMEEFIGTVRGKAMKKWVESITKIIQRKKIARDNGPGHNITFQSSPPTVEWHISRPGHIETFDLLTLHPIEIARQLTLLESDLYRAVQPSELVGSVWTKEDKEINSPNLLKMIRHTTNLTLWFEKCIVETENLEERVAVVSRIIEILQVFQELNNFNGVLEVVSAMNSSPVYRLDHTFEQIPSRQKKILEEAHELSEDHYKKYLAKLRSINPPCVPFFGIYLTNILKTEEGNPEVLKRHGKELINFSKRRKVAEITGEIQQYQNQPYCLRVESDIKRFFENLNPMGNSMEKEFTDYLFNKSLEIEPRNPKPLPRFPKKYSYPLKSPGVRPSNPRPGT

SMILES	IC50
Cc1c(C#N)cccc1[C@@H](C)NC(=O)c1cn(C23CC(C2)C3)c(=O)cc1N[C@H]1[C@@H]2CN(C)C[C@@H]21 [Example 181, 1-(bicyclo[1.1.1]pentan-1-yl)-N-((R)-1-(3-cyano-2-methylphenyl)ethyl)-4-(((1R,5S,6s)-3-methyl-3-azabicyclo[3.1.0]hexan-6-yl)amino)-6-oxo-1,6-dihydropyridine-3-carboxamide]	79.8 nM
C[C@@H](NC(=O)c1cn([C@H]2[C@H](C)C2(F)F)c(=O)cc1N[C@H]1[C@@H]2CN(C)C[C@@H]21)c1cccc(C(F)(F)F)c1F (single isomer, unassigned) [Example 198]	3.41 nM
CC(NC(=O)c1cn(C2(C(F)F)CC2)c(=O)cc1NC1CCN(C)CC1)c1ccc(C2CC2)c(C(F)(F)F)c1 (stereo not drawn) [Example 169, N-(1-(4-cyclopropyl-3-(trifluoromethyl)phenyl)ethyl)-1-(1-(difluoromethyl)cyclopropyl)-4-((1-methylpiperidin-4-yl)amino)-6-oxo-1,6-dihydropyridine-3-carboxamide]	5900 nM
C[C@@H](NC(=O)c1cn(C2(C(F)F)CC2)c(=O)cc1N[C@H]1C[C@@H](N(C)C)C1)c1cccc(C(F)F)c1F [Example 229, N-((R)-1-(3-(difluoromethyl)-2-fluorophenyl)ethyl)-1-(1-(difluoromethyl)cyclopropyl)-4-(((1s,3S)-3-(dimethylamino)cyclobutyl)amino)-6-oxo-1,6-dihydropyridine-3-carboxamide]	22.7 nM
C[C@@H](NC(=O)c1cn(C23CC(C2)C3)c(=O)cc1NC12CC(N)(C1)C2)c1cccc(C(F)F)c1F [Example 189, (R)-4-((3-aminobicyclo[1.1.1]pentan-1-yl)amino)-1-(bicyclo[1.1.1]pentan-1-yl)-N-(1-(3-(difluoromethyl)-2-fluorophenyl)ethyl)-6-oxo-1,6-dihydropyridine-3-carboxamide]	16.3 nM
C[C@@H](NC(=O)c1cn([C@]2(C(F)(F)F)CCOC2)c(=O)cc1N[C@H]1[C@@H]2CN(C)C[C@@H]21)c1cccc(C(F)F)c1F (single isomer, unassigned) [Example 235]	142 nM
C[C@@H](NC(=O)c1cn(C2(C(F)F)CC2)c(=O)cc1N[C@@H]1CCNC2(CC2)C1)c1cccc(C(F)F)c1F (single isomer, unassigned) [Example 278]	24.1 nM
C[C@@H](NC(=O)c1cn([C@]23COC[C@H]2C3)c(=O)cc1NC1CCN(C)CC1)c1cccc(C(F)F)c1F [Example 285, 1-((1S,SS)-3-oxabicyclo[3.1.0]hexan-1-yl)-N-((R)-1-(3-(difluoromethyl)-2-fluorophenyl)ethyl)-4-((1-methylpiperidin-4-yl)amino)-6-oxo-1,6-dihydropyridine-3-carboxamide]	4.7 nM
CN1C[C@@H]2[C@H](C1)[C@H]2Nc1cc(=O)n(C2(C(F)F)CC2)cc1C(=O)N[C@H](c1cccc(C(F)F)c1F)C(F)F [Example 159, N-((R)-1-(3-(difluoromethyl)-2-fluorophenyl)-2,2-difluoroethyl)-1-(1-(difluoromethyl)cyclopropyl)-4-(((1R,5S,6s)-3-methyl-3-azabicyclo[3.1.0]hexan-6-yl)amino)-6-oxo-1,6-dihydropyridine-3-carboxamide]	1060 nM
C[C@@H](NC(=O)c1cn([C@@H]2CCOC(C)(C)C2)c(=O)cc1N[C@H]1[C@@H]2CN(C)C[C@@H]21)c1cccc(C(F)F)c1F [Example 309, N-((R)-1-(3-(difluoromethyl)-2-fluorophenyl)ethyl)-1-((R)-2,2-dimethyltetrahydro-2H-pyran-4-yl)-4-(((1R,5S,6s)-3-methyl-3-azabicyclo[3.1.0]hexan-6-yl)amino)-6-oxo-1,6-dihydropyridine-3-carboxamide]	11.7 nM
Cc1c([C@@H](C)NC(=O)c2cn(C3CCOCC3)c(=O)cc2NCC23CCCN2CCC3)cccc1C(F)(F)F [Example 11, (R)-N-(1-(2-methyl-3-(trifluoromethyl)phenyl)ethyl)-6-oxo-4-(((tetrahydro-1H-pyrrolizin-7a(5H)-yl)methyl)amino)-1-(tetrahydro-2H-pyran-4-yl)-1,6-dihydropyridine-3-carboxamide]	37.6 nM
C[C@@H](NC(=O)c1cn([C@]2(C)CCN(C(=O)C3(F)CC3)C2)c(=O)cc1NC1CCN(C)CC1)c1cccc(C(F)F)c1F [Example 269, N-((R)-1-(3-(difluoromethyl)-2-fluorophenyl)ethyl)-1-((R)-1-(1-fluorocyclopropane-1-carbonyl)-3-methylpyrrolidin-3-yl)-4-((1-methylpiperidin-4-yl)amino)-6-oxo-1,6-dihydropyridine-3-carboxamide]	1.21 nM
C[C@@H](NC(=O)c1cn(C2CCC2)c(=O)cc1N[C@H]1[C@@H]2CN(C)C[C@@H]21)c1cccc(C(F)F)c1F [Example 150, 1-cyclobutyl-N-((R)-1-(3-(difluoromethyl)-2-fluorophenyl)ethyl)-4-(((1R,5S,6s)-3-methyl-3-azabicyclo[3.1.0]hexan-6-yl)amino)-6-oxo-1,6-dihydropyridine-3-carboxamide]	12.3 nM
C[C@@H](NC(=O)c1cn([C@H]2CC23CC3)c(=O)cc1N[C@H]1[C@@H]2CN(C)C[C@@H]21)c1cccc(C(F)(F)F)c1F (single isomer, unassigned) [Example 219]	26.9 nM
C[C@@H](NC(=O)c1cn([C@@H]2CC2(F)F)c(=O)cc1N[C@H]1[C@@H]2CN(C)C[C@@H]21)c1cccc(C(F)(F)F)c1F (single isomer, unassigned) [Example 199]	10.1 nM
C[C@@H](NC(=O)c1cn(C2(C(F)F)CC2)c(=O)cc1N[C@@H]1C[C@@H]2C[C@H]1CN2C)c1cccc(C(F)F)c1F (single isomer, unassigned) [Example 238]	29.3 nM
CC(C)N1C[C@@H]2[C@H](C1)[C@H]2Nc1cc(=O)n(C2(C(F)F)CC2)cc1C(=O)N[C@H](C)c1cccc(C(F)F)c1F [Example 59, N-((R)-1-(3-(difluoromethyl)-2-fluorophenyl)ethyl)-1-(1-(difluoromethyl)cyclopropyl)-4-(((1R,5S,6s)-3-isopropyl-3-azabicyclo[3.1.0]hexan-6-yl)amino)-6-oxo-1,6-dihydropyridine-3-carboxamide]	31.5 nM
C[C@@H](NC(=O)c1cn(C2(C(F)F)CC2)c(=O)cc1N[C@H]1CCN2CCC[C@@H]2C1)c1cccc(C(F)F)c1F (single isomer, unassigned) [Example 304]	25.7 nM
C[C@@H](NC(=O)c1cn(C2(C(F)F)CC2)c(=O)cc1N[C@H]1CCCn2cncc21)c1cccc(C(F)F)c1F (single isomer, unassigned) [Example 183]	6.1 nM
C[C@@H](NC(=O)c1cn([C@@H]2CC23CC3)c(=O)cc1N[C@H]1[C@@H]2CN(C)C[C@@H]21)c1cccc(C(F)(F)F)c1F (single isomer, unassigned) [Example 218]	15.8 nM
C[C@@H](NC(=O)c1cn(C2(C(F)F)CC2)c(=O)cc1NC[C@@H]1[C@H]2CN(C)C[C@@H]12)c1cccc(C(F)F)c1F [Example 226, N-((R)-1-(3-(difluoromethyl)-2-fluorophenyl)ethyl)-1-(1-(difluoromethyl)cyclopropyl)-4-((((1R,5S,6s)-3-methyl-3-azabicyclo[3.1.0]hexan-6-yl)methyl)amino)-6-oxo-1,6-dihydropyridine-3-carboxamide]	35.3 nM

From patent US20230348424A1, “HETEROCYCLIC COMPOUNDS AND METHODS OF USE” (Schrödinger, Inc., priority 2022, published 2023)
